{"source": "patent US10238118B2", "about": "(priority 2011, dated 2019)", "test_system": "Xylella fastidiosa (Xf)", "format": "cell-based", "details": "single metabolite from Cochliobolus sp. extract, identified by NMR and MS", "data": [{"compound": "C/C=C/c1cc2c(c(=O)o1)C(=O)[C@@H](O)[C@H](C)O2", "note": "[radicinin]", "values": [{"measurement": "anti-Xf inhibitory activity of the isolated metabolite", "value": "inhibitory activity"}]}]}
